In patent US10358449B2, “Xanthine derivative” (priority 2015, dated 2019):
Read-outs that look alike come from different tables or passages of the source. Marks after values point to notes of the source that are not given here.

Key:
[1] = target: humanized recombinant DPP9 (Homo sapiens (Human), UniProt Q86TI2); assay: Drug selectivity experiment in vitro, DPP9; assay type: biochemical
[2] = tested on: diabetic mice (B6.BKS(D)-Leprdb/JNju); assay: Glucose tolerance test of diabetic mice (Table 5); assay type: in vivo, mouse; set-up: AUC0-120 min: unit not given beside the values
Protocol: 2. Experimental method: normal mice, obese mice and diabetic mice were used for studying glucose tolerance tests Experimental process of OGTT (Oral Glucose Tolerance Test): fasting for 6 hours before the test begins, 60 min after drug administration, glucose was administrated by gavage (drug concentration 0.6 mg/ml, administration volume 5 ml/kg) (2 g/kg glucose was administrated to diabetic mice; 2 g/kg glucose was administrated to obese mice; and 5 g/kg glucose was administrated to normal mice), blood glucose values at 0 min, 15 min, 30 min, 45 min, 60 min and 120 min are respectively determined after glucose administration, […]

[3] = target: humanized recombinant DPP8 (Homo sapiens (Human), UniProt Q6V1X1); assay: Drug selectivity experiment in vitro, DPP8; assay type: biochemical
Sequence of humanized recombinant DPP8 (Q6V1X1 whole entry): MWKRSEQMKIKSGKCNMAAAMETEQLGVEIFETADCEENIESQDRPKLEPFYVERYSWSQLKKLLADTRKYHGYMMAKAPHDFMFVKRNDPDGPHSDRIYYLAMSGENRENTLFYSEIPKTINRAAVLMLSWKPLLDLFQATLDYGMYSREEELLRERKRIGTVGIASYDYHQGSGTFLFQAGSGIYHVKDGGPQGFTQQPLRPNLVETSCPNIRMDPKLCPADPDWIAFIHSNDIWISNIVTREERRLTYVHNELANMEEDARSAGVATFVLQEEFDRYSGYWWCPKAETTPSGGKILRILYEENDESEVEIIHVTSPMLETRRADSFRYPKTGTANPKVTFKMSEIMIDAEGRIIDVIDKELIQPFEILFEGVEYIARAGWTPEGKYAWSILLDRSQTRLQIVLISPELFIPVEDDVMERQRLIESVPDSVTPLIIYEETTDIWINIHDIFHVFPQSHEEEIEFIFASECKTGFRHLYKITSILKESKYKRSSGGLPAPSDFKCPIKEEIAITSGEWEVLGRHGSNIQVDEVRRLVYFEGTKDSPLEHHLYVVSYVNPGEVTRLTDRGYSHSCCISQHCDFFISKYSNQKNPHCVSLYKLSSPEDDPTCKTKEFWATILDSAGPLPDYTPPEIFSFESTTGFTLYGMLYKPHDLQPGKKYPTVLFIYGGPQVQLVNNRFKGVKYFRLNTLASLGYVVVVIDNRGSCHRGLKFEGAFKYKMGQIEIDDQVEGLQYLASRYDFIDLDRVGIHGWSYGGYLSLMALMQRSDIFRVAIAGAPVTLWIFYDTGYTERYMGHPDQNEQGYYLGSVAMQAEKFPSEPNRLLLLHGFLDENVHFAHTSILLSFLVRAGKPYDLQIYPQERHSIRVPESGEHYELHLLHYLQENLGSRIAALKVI

hERG potassium channel = hERG potassium channel (Homo sapiens (Human), UniProt Q12809); assay: hERG toxicity, manual patch clamp in CHO cells stably transfected with hERG; assay type: cell-based
Description: 1. Test method: testing the effect of the compounds on hERG […] in stable CHO cell lines transfected hERG […] by manual patch clamp method, and then calculating IC50 value of the compounds to hERG. Conventional Patch-Clamp was a technology that has been disclosed, was the most important technical means for studying ion channels and was universally recognized as the “gold standard” for ion channel researches and was the most accurate method for measuring ion channel. It was applicable to study the action mechanism of the effect of compound and the ion channel, and also could be used for toxicity evaluation and structure optimization of candidate drugs in the process of new drugs. In cardiomyocytes, human Ether-a-go-go Related Gene (hERG) coded potassium channel mediates a delayed rectification potassium current (IKr), IKr inhibition was the most important mechanism leading to QT interval prolongation by drugs. hERG could be inhibited by compounds of diversified structures, due to its specific molecular structure. […] The effects of compounds on hERG could be tested and relevant IC50 could be determined by conventional patch-clamp, using CHO cell lines that had been stably transfected hERG potassium channel.

CYP2D6 = CYP2D6 (Homo sapiens (Human), UniProt P10635); assay: biochemical; assay type: in vitro ADME
Sequence of CYP2D6 (P10635 whole entry): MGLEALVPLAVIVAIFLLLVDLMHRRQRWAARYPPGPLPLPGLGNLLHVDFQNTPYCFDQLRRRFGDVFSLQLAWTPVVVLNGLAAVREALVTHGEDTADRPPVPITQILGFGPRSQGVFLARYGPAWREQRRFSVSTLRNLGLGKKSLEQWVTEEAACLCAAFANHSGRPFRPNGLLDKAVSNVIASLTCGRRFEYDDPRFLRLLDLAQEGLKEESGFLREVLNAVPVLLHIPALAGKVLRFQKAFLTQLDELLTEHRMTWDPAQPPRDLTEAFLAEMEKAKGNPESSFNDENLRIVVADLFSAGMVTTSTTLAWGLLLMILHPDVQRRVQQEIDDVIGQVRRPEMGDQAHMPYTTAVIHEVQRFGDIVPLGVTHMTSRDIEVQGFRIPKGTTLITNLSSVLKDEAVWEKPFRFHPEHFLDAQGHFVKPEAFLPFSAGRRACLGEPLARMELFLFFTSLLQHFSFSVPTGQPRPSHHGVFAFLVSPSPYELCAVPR
Protocol: (§1) 1. Test method: human liver microsomes were used to carry out inhibition activity test of the compounds to CYP enzyme. With the system for incubating human liver microsomes in vitro, the content variation of phenacetin, diclofenac, S-mephenytoin, dextromethorphan and midazolam, which were substrates of human liver microsomes CYP1A2, CYP2C9, CYP2C19, CYP2D6, CYP3A4, were measured simultaneously by cocktail probe drug method (which is a disclosed technology), the effects of TSL-0319 under different concentrations on activity of human liver microsomes CYP1A2, CYP2C9, CYP2C19, CYP2D6, CYP3A4 subtypes are evaluated and relevant IC50 was measured.

CYP2C9 = CYP2C9 (Homo sapiens (Human), UniProt P11712); assay: biochemical; assay type: in vitro ADME
Sequence of CYP2C9 (P11712 whole entry): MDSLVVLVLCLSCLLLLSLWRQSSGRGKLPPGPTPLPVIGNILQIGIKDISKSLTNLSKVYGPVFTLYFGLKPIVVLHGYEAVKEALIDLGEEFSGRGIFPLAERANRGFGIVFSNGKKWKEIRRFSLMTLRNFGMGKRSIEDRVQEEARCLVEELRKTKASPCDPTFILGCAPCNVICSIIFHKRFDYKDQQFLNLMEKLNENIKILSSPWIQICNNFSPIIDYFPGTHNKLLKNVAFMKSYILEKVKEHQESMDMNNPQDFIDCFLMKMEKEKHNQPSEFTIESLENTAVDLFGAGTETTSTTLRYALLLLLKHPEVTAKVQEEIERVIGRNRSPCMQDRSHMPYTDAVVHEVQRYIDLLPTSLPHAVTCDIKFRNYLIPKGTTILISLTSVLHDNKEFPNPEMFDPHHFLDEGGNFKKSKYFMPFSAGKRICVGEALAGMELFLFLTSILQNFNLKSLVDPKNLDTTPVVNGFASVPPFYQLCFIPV
Protocol: as §1

CYP2C19 = CYP2C19 (Homo sapiens (Human), UniProt P33261); assay: biochemical; assay type: in vitro ADME
Sequence of CYP2C19 (P33261 whole entry): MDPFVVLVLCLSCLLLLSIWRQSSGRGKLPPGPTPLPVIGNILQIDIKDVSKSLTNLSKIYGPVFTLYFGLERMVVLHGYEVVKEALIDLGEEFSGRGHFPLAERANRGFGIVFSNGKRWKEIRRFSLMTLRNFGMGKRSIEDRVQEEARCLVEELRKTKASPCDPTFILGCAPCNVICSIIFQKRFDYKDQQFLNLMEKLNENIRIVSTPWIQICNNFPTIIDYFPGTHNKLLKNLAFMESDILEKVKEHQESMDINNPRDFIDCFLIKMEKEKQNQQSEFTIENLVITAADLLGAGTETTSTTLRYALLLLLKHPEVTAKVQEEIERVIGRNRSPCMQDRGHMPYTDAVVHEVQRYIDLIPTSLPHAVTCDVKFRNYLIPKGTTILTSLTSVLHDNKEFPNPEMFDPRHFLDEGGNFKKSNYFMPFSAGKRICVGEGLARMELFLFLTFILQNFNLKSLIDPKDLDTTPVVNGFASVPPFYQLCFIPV
Protocol: as §1

CYP1A2 = CYP1A2 (Homo sapiens (Human), UniProt P05177); assay: biochemical; assay type: in vitro ADME
Sequence of CYP1A2 (P05177 whole entry): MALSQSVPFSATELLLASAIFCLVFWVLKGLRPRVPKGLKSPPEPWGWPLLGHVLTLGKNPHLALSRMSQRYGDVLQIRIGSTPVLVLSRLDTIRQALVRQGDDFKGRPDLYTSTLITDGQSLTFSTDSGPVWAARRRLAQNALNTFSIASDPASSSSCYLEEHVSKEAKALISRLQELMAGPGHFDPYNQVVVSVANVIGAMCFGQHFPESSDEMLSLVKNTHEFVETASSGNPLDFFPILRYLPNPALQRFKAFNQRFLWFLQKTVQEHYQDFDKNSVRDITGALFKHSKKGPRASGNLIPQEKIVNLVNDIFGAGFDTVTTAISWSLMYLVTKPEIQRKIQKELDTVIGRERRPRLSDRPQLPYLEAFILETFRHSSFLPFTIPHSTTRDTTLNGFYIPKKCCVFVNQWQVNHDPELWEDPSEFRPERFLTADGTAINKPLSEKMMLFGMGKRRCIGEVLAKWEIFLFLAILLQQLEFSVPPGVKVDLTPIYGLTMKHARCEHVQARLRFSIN
Protocol: as §1

CYP3A4 = CYP3A4 (Homo sapiens (Human), UniProt P08684); assay: biochemical; assay type: in vitro ADME
Sequence of CYP3A4 (P08684 whole entry): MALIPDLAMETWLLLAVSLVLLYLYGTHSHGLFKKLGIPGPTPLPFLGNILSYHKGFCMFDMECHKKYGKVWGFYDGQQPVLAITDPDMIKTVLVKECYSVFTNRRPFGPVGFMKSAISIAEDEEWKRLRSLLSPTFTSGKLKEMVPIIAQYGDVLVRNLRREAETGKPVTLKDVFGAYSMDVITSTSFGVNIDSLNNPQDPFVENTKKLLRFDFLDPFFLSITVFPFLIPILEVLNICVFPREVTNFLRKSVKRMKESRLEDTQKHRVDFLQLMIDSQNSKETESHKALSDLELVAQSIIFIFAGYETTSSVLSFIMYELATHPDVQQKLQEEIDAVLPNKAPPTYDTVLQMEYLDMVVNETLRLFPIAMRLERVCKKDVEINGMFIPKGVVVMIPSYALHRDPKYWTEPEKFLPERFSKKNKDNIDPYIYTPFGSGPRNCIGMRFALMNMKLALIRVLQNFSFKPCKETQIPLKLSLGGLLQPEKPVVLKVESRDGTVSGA
Protocol: as §1

[4] = target: humanized recombinant DPP-IV (Homo sapiens (Human), UniProt P27487); assay: DPP-IV activity inhibition test in vitro (DPPIV-Glo luminescence); assay type: biochemical
Sequence of humanized recombinant DPP-IV (P27487 whole entry): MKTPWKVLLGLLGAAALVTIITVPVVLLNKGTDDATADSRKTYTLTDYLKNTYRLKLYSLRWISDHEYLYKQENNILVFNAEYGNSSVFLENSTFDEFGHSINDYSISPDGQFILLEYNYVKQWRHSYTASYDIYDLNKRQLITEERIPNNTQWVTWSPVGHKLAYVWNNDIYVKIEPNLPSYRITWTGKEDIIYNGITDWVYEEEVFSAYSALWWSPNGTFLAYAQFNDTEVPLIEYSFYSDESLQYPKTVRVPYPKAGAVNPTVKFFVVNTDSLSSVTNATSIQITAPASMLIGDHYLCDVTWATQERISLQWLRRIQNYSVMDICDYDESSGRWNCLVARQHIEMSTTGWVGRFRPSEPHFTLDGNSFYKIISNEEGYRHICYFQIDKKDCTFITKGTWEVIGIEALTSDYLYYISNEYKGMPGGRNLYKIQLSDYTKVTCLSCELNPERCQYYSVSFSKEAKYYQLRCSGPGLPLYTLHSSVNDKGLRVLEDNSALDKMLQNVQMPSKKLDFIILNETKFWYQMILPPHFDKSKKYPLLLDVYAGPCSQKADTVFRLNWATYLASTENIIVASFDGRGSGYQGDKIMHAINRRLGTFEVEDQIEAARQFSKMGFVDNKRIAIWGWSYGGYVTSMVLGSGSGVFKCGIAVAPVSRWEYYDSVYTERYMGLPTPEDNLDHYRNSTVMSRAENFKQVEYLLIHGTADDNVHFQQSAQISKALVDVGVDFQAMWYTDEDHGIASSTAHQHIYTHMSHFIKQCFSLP
Protocol: (1) DPP-IV Activity Inhibition Tests In Vitro
DPP-IV could hydrolyze Gly-Pro-Aminoluciferin at room temperature to generate Aminoluciferin, which could produce “glow type” luminescent signals in a luciferase reaction system provided by a DPPIV-Glo™ protease test kit, and the strength of the luminescent signals was in direct proportion to the enzyme activity of DPP-IV.
2.1 humanized recombinant DPP-IV: SIGMA product, article number D3446-10UG.
2.2 DPPIV-Glo™ protease detection kit: Promega product, article number G8351.
3.2 Diluting dipeptidyl peptidase IV (Sigma) to 0.2 ng/ml solution with 10 mM Tris-HCl (pH 8.0), adding the samples to be detected in, per well 25 μl. […] Experimental Results

Sequence of humanized recombinant DPP9 (Q86TI2 whole entry): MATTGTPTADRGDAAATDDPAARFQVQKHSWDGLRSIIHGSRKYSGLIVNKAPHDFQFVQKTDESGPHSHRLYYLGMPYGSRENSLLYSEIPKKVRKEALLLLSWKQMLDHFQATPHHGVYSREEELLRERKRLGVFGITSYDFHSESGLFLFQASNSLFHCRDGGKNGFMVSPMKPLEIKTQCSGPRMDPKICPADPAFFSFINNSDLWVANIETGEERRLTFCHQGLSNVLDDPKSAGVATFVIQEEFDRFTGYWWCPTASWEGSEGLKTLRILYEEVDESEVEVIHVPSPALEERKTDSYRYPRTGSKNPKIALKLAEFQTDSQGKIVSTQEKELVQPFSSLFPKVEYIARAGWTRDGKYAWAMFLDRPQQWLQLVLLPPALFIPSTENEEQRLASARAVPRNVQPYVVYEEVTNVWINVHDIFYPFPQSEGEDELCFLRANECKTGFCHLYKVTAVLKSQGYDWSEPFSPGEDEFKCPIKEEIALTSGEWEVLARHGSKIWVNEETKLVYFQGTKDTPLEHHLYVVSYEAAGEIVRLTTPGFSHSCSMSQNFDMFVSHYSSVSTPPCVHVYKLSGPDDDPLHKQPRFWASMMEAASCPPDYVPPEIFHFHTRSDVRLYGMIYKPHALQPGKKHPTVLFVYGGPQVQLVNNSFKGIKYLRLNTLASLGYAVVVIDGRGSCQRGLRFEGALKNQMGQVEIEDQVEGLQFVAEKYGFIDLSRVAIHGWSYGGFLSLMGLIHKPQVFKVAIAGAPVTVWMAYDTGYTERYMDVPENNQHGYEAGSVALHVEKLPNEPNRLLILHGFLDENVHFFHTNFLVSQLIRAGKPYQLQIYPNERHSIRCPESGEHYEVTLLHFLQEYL

IC50 [1]: > 100 µM
Selectivity (DPP9 column) ([1]; DPP9 versus DPP4): > 1250000
inhibition effect to DPP9 ([1]; in words): no inhibition effect
IC50 [3]: > 100 µM
Selectivity (DPP8 column) ([3]; DPP8 versus DPP4): > 1250000
inhibition effect to DPP8 ([3]; in words): no inhibition effect
IC50 (CYP2D6): > 50 µM
inhibition at 0.05 µM (CYP2D6; human, microsomes): 0%
inhibition at 0.15 µM (CYP2D6; human, microsomes): 0%
inhibition at 0.5 µM (CYP2D6; human, microsomes): 0%
inhibition at 1.5 µM (CYP2D6; human, microsomes): 0%
inhibition at 5 µM (CYP2D6; human, microsomes): 0%
inhibition at 15 µM (CYP2D6; human, microsomes): 3%
inhibition at 50 µM (CYP2D6; human, microsomes): 14.6%
IC50 (CYP2C9): > 50 µM
inhibition at 0.05 µM (CYP2C9; human, microsomes): 0%
inhibition at 0.15 µM (CYP2C9; human, microsomes): 0%
inhibition at 0.5 µM (CYP2C9; human, microsomes): 3.2%
inhibition at 1.5 µM (CYP2C9; human, microsomes): 5.7%
inhibition at 5 µM (CYP2C9; human, microsomes): 10.5%
inhibition at 15 µM (CYP2C9; human, microsomes): 12.1%
inhibition at 50 µM (CYP2C9; human, microsomes): 13.9%
IC50 (CYP2C19): > 50 µM
inhibition at 0.05 µM (CYP2C19; human, microsomes): 0%
inhibition at 1.5 µM (CYP2C19; human, microsomes): 3.3%
inhibition at 5 µM (CYP2C19; human, microsomes): 8.2%
inhibition at 15 µM (CYP2C19; human, microsomes): 14%
inhibition at 50 µM (CYP2C19; human, microsomes): 2.9%
IC50 (CYP1A2): > 50 µM
inhibition at 0.05 µM (CYP1A2; human, microsomes): 0%
inhibition at 0.15 µM (CYP1A2; human, microsomes): 0%
inhibition at 0.5 µM (CYP1A2; human, microsomes): 2.2%
inhibition at 1.5 µM (CYP1A2; human, microsomes): 4.2%
inhibition at 5 µM (CYP1A2; human, microsomes): 6.6%
inhibition at 15 µM (CYP1A2; human, microsomes): 20.8%
inhibition at 50 µM (CYP1A2; human, microsomes): 41.8%
IC50 (CYP3A4): > 50 µM
inhibition at 0.05 µM (CYP3A4; human, microsomes): 0%
inhibition at 0.15 µM (CYP3A4; human, microsomes): 0%
inhibition at 0.5 µM (CYP3A4; human, microsomes): 4%
inhibition at 1.5 µM (CYP3A4; human, microsomes): 4.4%
inhibition at 5 µM (CYP3A4; human, microsomes): 8.7%
inhibition at 15 µM (CYP3A4; human, microsomes): 17.9%
inhibition at 50 µM (CYP3A4; human, microsomes): 44.6%
IC50 ([4]; DPP-IV, Table 1, read-out: IC50): 0.08 nM
IC50 ([4]; Table 2, read-out: DPP4 IC50): 0.08 nM
DPP-IV activity compared with linagliptin ([4]; in words): better activity than linagliptin
SMILES: CC#CCn1c(N2CCC[C@@H](N)C2)nc2c1c(=O)n(Cc1nccnc1C#N)c(=O)n2C [Compound I-3, 1-[(3-cyano-pyrazine-2-yl)methyl]-3-methyl-7-(2-butyne-1-yl)-8-[(R)-3-amino-piperidine-1-yl]-xanthine]
hypoglycemic effect ([2]; Table 5 mice (diabetic), in words): good hypoglycemic effect
Blood glucose concentration 0 min ([2]; diabetic mice B6.BKS(D)-Leprdb/JNju, drug at -60 min (0.6 mg/ml, 5 ml/kg), 2 g/kg glucose at 0 min): 11.84 mmol/L
Blood glucose concentration 15 min ([2]; diabetic mice, 15 min after glucose): 32.23 mmol/L
Blood glucose concentration 30 min ([2]; diabetic mice, 30 min after glucose): 22.80* mmol/L
Blood glucose concentration 45 min ([2]; diabetic mice, 45 min after glucose): 15.70*** mmol/L
Blood glucose concentration 60 min ([2]; diabetic mice, 60 min after glucose): 13.80*** mmol/L
Blood glucose concentration 120 min ([2]; diabetic mice, 120 min after glucose): 8.75** mmol/L
AUC0-120 min ([2]; diabetic mice, blood glucose AUC): 1930**
inhibition rate to hERG (hERG potassium channel; 1 μM concentration): 0%
IC50 (hERG potassium channel; manual patch clamp, CHO cells): 79.8 µM
